Legend:
PKCθ = molecular target: T1, PKCθ (Homo sapiens, UniProt Q04759); test: In vitro enzyme assay (time-resolved fluorescence kinase assay), PKCθ, 100 μM ATP; format: biochemical
T1 construct: His6; purchased Millipore; host or cells: baculovirus in Sf21 cells
Experimental: (§1) PKC kinase activity was assayed by time-resolved fluorescence in vitro kinase assay. Unless otherwise indicated, all reagents used for enzyme assays were obtained from Sigma. Specifically, 5 μL N- or C-terminal His6-tagged, recombinant, human PKC, expressed by baculovirus in Sf21 cells (Millipore) was mixed with 5 μL inhibitor (various concentrations, 5% final DMSO), 5 μL Bio-cdc peptide (Biotin-Ahx-[…], 2 μM final concentration, New England Peptide) and 5 μL of ATP (100 μM or 1000 μM final concentration) in 1× reaction buffer, 20 μL final volume.
(§2) Following a sixty minute incubation at room temperature, the reaction was quenched with 5 μL of 0.5 M EDTA pH 7.5.
(§3) Background counts from a minus enzyme control is subtracted from all data. Data (after background correction) are converted to percent activity by dividing by the signal obtained from PKC without drug sample.

[1] = system: CD3/CD28 induced IL-2 in human T-Blasts; test: T-Blasts CD3/CD28 induced IL-2 assay; format: cell-based; conditions: read-out: CD3/CD28-stimulated IL2 in T-blasts EC50
Experimental: T-Blasts CD3/CD28 Induced IL-2 Assay
Human T-Blasts are generated using PHA following standard protocols. T-Blasts are freeze aliquoted and vials thawed as required. […] Seed 2×10^5/100 μL cell suspension per well in flat bottomed 96 well plate. Compound dilutions are prepared from 100% DMSO stocks. A total of 8 serial dilutions are made (1/3 in 100% DMSO). Compounds are diluted 1/50 in growth medium to prepare 4× stocks of each tested concentration. 50 μL from each 4× stock concentration is added to the 100 μL cell suspension and incubated for 30 minutes prior stimulus addition. A 4× stimulus stock is prepared using anti-CD3+anti-CD28 antibodies. Antibody mix is added to the cell/compounds suspension in 50 μL at 5 μg/mL final concentration. Compounds are tested in duplicates. Plates are transferred to 37° C./CO2 incubator for 24 hours. After incubation 130 μL of supernatant is collected for IL-2 determination while MTT toxicity analysis is performed on remaining cells/medium.

PKCα = molecular target: T2, PKCα (Homo sapiens, UniProt P17252); test: In vitro enzyme assay (time-resolved fluorescence kinase assay), PKCα, 100 μM ATP; format: biochemical; conditions: 100 μM ATP; read-out: PKCα enzyme IC50
T2 construct: His6; purchased Millipore; host or cells: baculovirus in Sf21 cells
Experimental: as §1, §2, §3

T1 sequence (Q04759 whole entry): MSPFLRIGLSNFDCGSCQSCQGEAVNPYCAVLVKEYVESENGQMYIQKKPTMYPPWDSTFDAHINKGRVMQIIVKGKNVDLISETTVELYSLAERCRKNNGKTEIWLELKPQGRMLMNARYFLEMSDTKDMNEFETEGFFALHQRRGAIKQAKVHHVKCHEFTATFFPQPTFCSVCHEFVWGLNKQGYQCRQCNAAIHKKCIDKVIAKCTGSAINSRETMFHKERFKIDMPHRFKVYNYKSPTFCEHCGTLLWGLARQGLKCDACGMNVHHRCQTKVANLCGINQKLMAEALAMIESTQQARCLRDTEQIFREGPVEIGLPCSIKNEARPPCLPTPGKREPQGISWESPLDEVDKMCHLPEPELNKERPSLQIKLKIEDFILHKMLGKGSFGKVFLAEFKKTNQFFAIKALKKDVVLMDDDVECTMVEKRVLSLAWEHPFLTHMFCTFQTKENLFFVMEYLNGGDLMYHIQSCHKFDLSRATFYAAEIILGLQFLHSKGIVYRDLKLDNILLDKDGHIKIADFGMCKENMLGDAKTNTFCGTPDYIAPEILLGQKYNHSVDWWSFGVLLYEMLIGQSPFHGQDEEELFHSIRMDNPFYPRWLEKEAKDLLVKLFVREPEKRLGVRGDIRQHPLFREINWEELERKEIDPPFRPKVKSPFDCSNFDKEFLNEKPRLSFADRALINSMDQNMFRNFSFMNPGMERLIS

Row | SMILES | IC50 (PKCθ) | EC50 [1] | IC50 (PKCα)
1 | Cc1ccc(-c2cc3c(cc2NC2CNC2)N2C(=NNC(=O)C2C)CO3)c(F)c1 (racemic) [Example 12] | < 250 nM | < 250 nM | 1000 to 10000 nM
2 | CC(C)c1cc2c(cc1NC1CNC1)N1C(=NNC(=O)[C@H]1C)CO2 (single isomer, unassigned) [Example 57-1, trifluoroacetic acid] | < 250 nM | < 250 nM | 1000 to 10000 nM
3 | Cc1cc2c(cc1NC1CN(C)C1)N1C(=NNC(=O)C1C)CO2 (stereo not drawn) [Example 125, 1,8-Dimethyl-9-((1-methylazetidin-3-yl)amino)-3,5-dihydrobenzo[5,6][1,4]oxazino[3,4-c][1,2,4]triazin-2(1H)-one trifluoroacetic acid] | < 250 nM | 250 to 1000 nM | 1000 to 10000 nM
4 | CC1C(=O)NN=C2COc3cc(Nc4ccccc4)c(NC4CNC4)cc3N21 (stereo not drawn) [Example 128, 6-(Azetidin-3-ylamino)-4-methyl-7-phenylamino-2,10-dihydro-9-oxa-1,2,4a-triaza-phenanthren-3-one trifluoroacetic acid] | < 250 nM | 250 to 1000 nM | 1000 to 10000 nM
5 | CC1C(=O)NN=C2CCc3ccc(NC4CNC4)cc3N21 (stereo not drawn) [Example 108, 9-(Azetidin-3-ylamino)-1-methyl-5,6-dihydro-1H-[1,2,4]triazino[4,3-a]quinolin-2(3H)-one hydrochloric acid] | < 250 nM | < 250 nM | 250 to 1000 nM
6 | C[C@@H]1C(=O)NN=C2COc3cc(-c4ccc(F)cc4F)c([C@@H]4CCN(C)C[C@@H]4C)cc3N21 [Example 238] | < 250 nM | < 250 nM | < 250 nM
7 | C[C@@H]1C(=O)NN=C2COc3cc(C4=CCC(F)(F)CC4)c(C4CCNCC4)cc3N21 [Example 211] | < 250 nM | 250 to 1000 nM | 1000 to 10000 nM
8 | C[C@@H]1C(=O)NN=C2COc3cc(-c4c(F)cccc4F)c(C4CCNCC4)cc3N21 [Example 213] | < 250 nM | < 250 nM | 1000 to 10000 nM
9 | Cc1cc2c(cc1OC1CNC1)N1C(=NNC(=O)C1C)CO2 (stereo not drawn) [Example 67] | < 250 nM | < 250 nM | 1000 to 10000 nM
10 | C[C@@H]1C(=O)NN=C2COc3cc(-c4ccccc4F)c([C@@H](C)C4(C)CN(CC5COC5)C4)cc3N21 [Example 144] | < 250 nM | 250 to 1000 nM | 1000 to 10000 nM
11 | C[C@@H]1C(=O)NN=C2COc3cc(-c4ccccc4F)c([C@@H](C)C4(C)CN(CC(C)(C)O)C4)cc3N21 [Example 143] | < 250 nM | < 250 nM | 250 to 1000 nM
12 | C[C@@H]1C(=O)NN=C2COc3cc4c(cc3N21)N([C@H]1CCNC1)CC4 [Example 154, (R)-1-Methyl-10-(S)-pyrrolidin-3-yl-3,5,9,10-tetrahydro-8H-6-oxa-3,4,10,11b-tetraaza-cyclopenta[b]phenanthren-2-one hydrochloric acid] | < 250 nM | 250 to 1000 nM | 1000 to 10000 nM
13 | C[C@@H]1C(=O)NN=C2COc3cc(-c4ccccc4F)c([C@@H](C)C4(C)CN(CC5CCOCC5)C4)cc3N21 [Example 142] | < 250 nM | 250 to 1000 nM | 1000 to 10000 nM
14 | CC1C(=O)NN=C2COc3cc(-c4ccccc4C(F)(F)F)c(NC4CNC4)cc3N21 (racemic) [Example 28] | < 250 nM | < 250 nM | 1000 to 10000 nM
15 | CC1C(=O)NN=C2COc3ccc(C4CCNCC4(C)C)cc3N21 (stereo not drawn) [Example 74] | < 250 nM | 250 to 1000 nM | 1000 to 10000 nM
16 | CC1C(=O)NN=C2COc3cc(F)c(OC4CNC4)cc3N21 (stereo not drawn) [Example 123, 9-(Azetidin-3-yloxy)-8-fluoro-1-methyl-3,5-dihydrobenzo[5,6][1,4]oxazino[3,4-c][1,2,4]triazin-2(1H)-one trifluoroacetic acid] | 250 to 1000 nM | 1000 to 10000 nM | 1000 to 10000 nM
17 | CC1C(=O)NN=C2COc3c(cc(NC4CNC4)c(F)c3F)N21 (stereo not drawn) [Example 114, 9-(Azetidin-3-ylamino)-7,8-difluoro-1-methyl-3,5-dihydrobenzo[5,6][1,4]oxazino[3,4-c][1,2,4]triazin-2(1H)-one trifluoroacetic acid] | < 250 nM | < 250 nM | 1000 to 10000 nM
18 | CC1C(=O)NN=C2COc3cc(Oc4ccccc4)c(NC4CNC4)cc3N21 (stereo not drawn) [Example 106, 6-(Azetidin-3-ylamino)-4-methyl-7-phenoxy-2,10-dihydro-9-oxa-1,2,4a-triaza-phenanthren-3-one trifluoroacetic acid] | < 250 nM | 250 to 1000 nM | 1000 to 10000 nM
19 | CC(C)c1cc2c(cc1OC1(C)CNC1)N1C(=NNC(=O)[C@H]1C)CO2 (single isomer, unassigned) [Example 121-2, trifluoroacetic acid] | 250 to 1000 nM | 1000 to 10000 nM | 1000 to 10000 nM
20 | C[C@@H]1C(=O)NN=C2COc3cc(-c4ccccc4F)c([C@H]4CCCNC4)cc3N21 [Example 216] | < 250 nM | 250 to 1000 nM | 1000 to 10000 nM
21 | C[C@@H]1C(=O)NN=C2COc3cc(-c4ccccc4CO)c([C@@H](C)C4(C)CN(C)C4)cc3N21 [Example 135] | < 250 nM | < 250 nM | 250 to 1000 nM
22 | CC1C(=O)NN=C2COc3cc(F)c(NC4(C)CNC4)cc3N21 (stereo not drawn) [Example 84, 8-Fluoro-1-methyl-9-((3-methylazetidin-3-yl)amino)-3,5-dihydrobenzo[5,6][1,4]oxazino[3,4-c][1,2,4]triazin-2(1H)-one trifluoroacetic acid] | < 250 nM | < 250 nM | 1000 to 10000 nM
23 | C[C@@H]1C(=O)NN=C2COc3cc(C4CC4)c(NC4CNC4)cc3N21 (single isomer, unassigned) [Example 64-1, trifluoroacetic acid] | < 250 nM | < 250 nM | 1000 to 10000 nM
24 | CC1C(=O)NN=C2COc3cc(-c4ccc(C(C)(C)C)cc4)c(NC4CNC4)cc3N21 (racemic) [Example 26] | 250 to 1000 nM | < 250 nM | 1000 to 10000 nM

Next, values leading:

Row | IC50 (PKCθ) | EC50 [1] | IC50 (PKCα) | SMILES
25 | < 250 nM | < 250 nM | 1000 to 10000 nM | C[C@@H]1C(=O)NN=C2COc3cc(-c4ccccc4F)c([C@@H]4CCNC4)cc3N21 [Example 215]
26 | < 250 nM | 250 to 1000 nM | 1000 to 10000 nM | CC1C(=O)NN=C2COc3cc(-c4ccccc4)c(NC4CNC4)cc3N21 (racemic) [Example 51]
27 | < 250 nM | 250 to 1000 nM | 1000 to 10000 nM | CC1C(=O)NN=C2COc3ccc(C(C)C4(C)CNC4)cc3N21 (stereo not drawn) [Example 129, 1-Methyl-9-(1-(3-methylazetidin-3-yl)ethyl)-3,5-dihydrobenzo[5,6][1,4]oxazino[3,4-c][1,2,4]triazin-2(1H)-one trifluoroacetic acid]
28 | < 250 nM | 250 to 1000 nM | 1000 to 10000 nM | C[C@@H]1C(=O)NN=C2COc3cc(-c4ccccc4F)c(N(C)C4(C)CN(CCC(F)(F)F)C4)cc3N21 [Example 193]
29 | < 250 nM | < 250 nM | 250 to 1000 nM | CC1C(=O)NN=C2COc3cc(-c4ccccc4)c(N(C)C4(C)CN(C5CCOCC5)C4)cc3N21 (stereo not drawn) [Example 94]
30 | < 250 nM | < 250 nM | < 250 nM | C[C@H](O)CN1CC(C)(N(C)c2cc3c(cc2-c2ccccc2F)OCC2=NNC(=O)[C@@H](C)N23)C1 [Example 188]
31 | < 250 nM | < 250 nM | < 250 nM | CC1C(=O)NN=C2COc3cc(-c4ccccc4)c(N(C)C4(C)CNC4)cc3N21 (stereo not drawn) [Example 90]
32 | < 250 nM | < 250 nM | 250 to 1000 nM | CC(C)N1CC(C)(N(C)c2cc3c(cc2-c2ccccc2)OCC2=NNC(=O)C(C)N23)C1 (stereo not drawn) [Example 91]
33 | 250 to 1000 nM | 1000 to 10000 nM | 1000 to 10000 nM | CC1C(=O)NN=C2COc3cc(-c4ccccc4)c(NC4(C)CNC4)cc3N21 (stereo not drawn) [Example 79, 4-Methyl-6-(3-methyl-azetidin-3-ylamino)-7-phenyl-2,10-dihydro-9-oxa-1,2,4a-triaza-phenanthren-3-one trifluoroacetic acid]
34 | < 250 nM | < 250 nM | 1000 to 10000 nM | Cc1ccccc1-c1cc2c(cc1NC1CNC1)N1C(=NNC(=O)[C@H]1C)CO2 [Example 5]
35 | < 250 nM | < 250 nM | 250 to 1000 nM | C[C@@H]1C(=O)NN=C2COc3cc(-c4ccccc4F)c(N(C)[C@]4(C)CCN(C)C4)cc3N21 (single isomer, unassigned) [Example 198-4]
36 | < 250 nM | 250 to 1000 nM | 1000 to 10000 nM | CC(=O)N1CC(C)(N(C)c2cc3c(cc2-c2ccccc2F)OCC2=NNC(=O)[C@@H](C)N23)C1 [Example 183, (R)-6-[(1-Acetyl-3-methyl-azetidin-3-yl)-methyl-amino]-7-(2-fluoro-phenyl)-4-methyl-2,10-dihydro-9-oxa-1,2,4a-triaza-phenanthren-3-one]

Source: patent publication US9115151B2, “Substituted 2,10-dihydro-9-oxa-1,2,4A-triazaphenanthren-3-ones and uses thereof” (AbbVie Inc., priority 2012, dated 2015)
